From patent US20260027073A1, “USE OF SMALL-MOLECULE COMPOUND HAVING NAPHTHYLAMINE STRUCTURE” (HANGZHOU PHECDAMED CO., LTD., priority 2023, published 2026) come the findings set out here.

The test system of experiment [1] is middle artery occlusion model in rats. Briefly: Stroke: middle cerebral artery occlusion (MCAO). The format is in vivo, SD rats. The settings on record: for escape latency (water maze) / number of crossing over the platform (water maze) / apoptosis rate of hippocampal neurons (flow cytometry): 30 mg/kg oral gavage; for escape latency (water maze) / number of crossing over the platform (water maze): 8 weeks; for escape latency (water maze): FIG. 82; for number of crossing over the platform (water maze): FIG. 83; for apoptosis rate of hippocampal neurons (flow cytometry): FIG. 84. The source says: 7-8 weeks-old SD male rats were selected and adaptively fed for one week to establish a middle artery occlusion model in rats. After inducing anesthesia in rats using a small animal anesthesia machine, the anesthesia was immediately switched to maintenance, the rats were fixed in the supine position on the operating table, the neck in the middle and the right side of the operative part were shaved, and an incision was made in the middle of the neck after disinfection with alcohol and iodine vapors, and the carotid artery was separated along the tissues under the microscope, to avoid damaging blood vessels and nerves and to reduce the amount of hemorrhage; the electrocoagulation pen was used to cut off small arteries in the paracarotid branch and ligate the external carotid artery, and an another loose knot was played for backup; arterial clips were used to clip the proximal end of internal carotid artery and common carotid artery; the external carotid artery was cut with surgical scissors in the […], the filament was inserted carefully, and the marking point reached the bifurcation of internal and external carotid arteries, which meant that the head of the filament has already reached the middle cerebral artery; the skin was sutured, the symptoms were observed when the animal waked up, and the neurological function was evaluated; the suture line was cut open two hours after the surgery, the filament was drawn out, and ligature the remnant of external carotid artery was ligated tightly. The skin was re-sutured and attention was paid to the postoperative care of the rats. After modeling, drug administration was started in groups, which were divided into three groups: model group (model, treated with 0.5% CMC-Na by oral gavage, n=8) TJ01-013 treatment group (TJ01-013, 30 mg/kg TJ01-013 by oral gavage, n=8), and I-14-1 treatment group (I-14-1, 30 mg/kg I-14-1 by oral gavage, n=8). 8). Another normal control group (Control, 0.5% CMC-Na treatment by oral gavage, n=8) was set up, with performing the corresponding surgical operation, but no carotid artery was ligated and no filament insertion was performed, and the normal control group was administered for a total of 8 weeks, and at the end of the administration, the cognitive function of the rats was examined by using the water maze.
The night before the experiment begins, clean the laboratory and the water maze, the old water in the water maze is drained, the animal excreta should be cleaned up, and the laboratory is ventilated and free of special odor. The water maze was filled with fresh water, and the height of the water surface should be about 2 cm higher than the platform, and the four groups of rats underwent the water maze acclimatization training for 5 days. The above training was divided into a 4-day localization navigation experiment and a 1-day spatial exploration experiment. The water maze device was a circular pool, which was divided into quadrants I, II, III and IV with four equidistant points on the wall, and a circular hidden platform was placed in the center of the fourth quadrant. References were around the pool and kept unchanged, the pool and the platform were black, and black ink was poured into the water and mixed thoroughly so that the rats could not see the circular platform. The temperature of the water was kept at 22˜24° C. and the light in the room was stabilized. For each group of rats, a water maze test was performed at the end of drug administration to examine the cognitive status of the experimental animals. […] The four groups of rats underwent this training for 4 days, four times a day, two times in the morning and two times in the afternoon. At the end of each day, the experimenter thoroughly cleaned the water maze apparatus to prevent the odor of the rats in the water maze from affecting the results of the second day of the experiment. […]
Background: A flow cytometer gives signals particle by particle.

In experiment [2] the test system is chronic epilepsy mouse model. Description: PTZ chronic epilepsy model. To be noted: for seizure grade (Racine grading) / latency in platform jumping (Step-down) experiment / Step-through latency, dark avoidance experiment: 30 mg/kg oral gavage, 21 days; for seizure grade (Racine grading): FIG. 63; for latency in platform jumping (Step-down) experiment: FIG. 64; for Step-through latency, dark avoidance experiment: FIG. 65; for serum IL-1β level / serum TNF-α level: 30 mg/kg, to a certain degree, FIG. 66. The format is in vivo, ICR mice. As to the method: Clean grade 8-10 week old male ICR mice were selected for the preparation of a chronic epilepsy mouse model. They were randomly divided into four groups: normal control group (Control, 0.5% CMC-Na treatment by oral gavage, n=8), model group (Model, 0.5% CMC-Na treatment by oral gavage, n=8), TJ01-013 treatment group (TJ01-013, 30 mg/kg TJ01-013 by oral gavage, n=8), I-14-1 treatment group (I-14-1, 30 mg/kg I-14-1 by oral gavage, n=8). Starting from the first day of the experiment, at 10-11 am every day, mice in all groups except the normal control group were injected intraperitoneally with PTZ 40 mg/kg and the normal control group was injected with the corresponding volume of saline for a total of 21 days. The drug administration treatment was started right after the start of modeling, and the drug was administered once a day for a total of 21 days, and the corresponding tests were performed at the end of the drug administration.
Epileptic seizure grading standard is based on Racine grading: Grade 0, no convulsive response, manifested as normal behavior state; Grade I, facial muscle spasm, manifested as rhythmic chewing, blinking, moving whiskers, etc.; Grade II, neck muscle spasm, manifested as head nodding with or without tail erecting; Grade III, forelimb lifting, clonic or rhythmic twitching; Grade IV, hindlimb tonic or standing tonic; Grade V, generalized clonic, standing tonic and falling down; loss of balance.
The platform jumping experiment is an experimental method designed to utilize the habit of experimental mice to jump down from a high place immediately to explore the surrounding environment. The experimental mice are placed on a high platform, and at the moment of jumping down, they are given electrical stimulation. Then in order to avoid the electric stimulus, the animals will not jump off the platform, while the mice that are not good at learning and memorizing will maintain their habit and jump off the platform. At the end of each round of the experiment, 75% alcohol were sprayed for wiping to avoid odor interference between the mice. The experiment was conducted after the administration, and the experimental device was a cubic box with a (10 cm×10 cm) electric fence at the bottom and a height of 30 cm, with a platform of 3.2 cm in height and 4.2 cm in diameter inside. The experimental steps and procedures of this experiment were divided into: (1) The mice were put into the bottom of the experimental device, which was not energized at this time, so that they were free to explore and adapt to the environment for 10 s. (2) The mice were placed on the high platform inside the experimental device, and the time at which the mice jumped off the high platform was recorded as Initial latency, and were given electrical stimulation (50 Hz, 20 V, 5 s). (3) After 24 h, the mice were placed on the platform again, and the time at which they jumped off the platform was recorded as Step-down latency. The residence time of the mice on the high platform should not exceed 60 s, and the time exceeding 60 s was still recorded as 60 s.
The step through dark avoidance experiment is an experimental method designed to utilize the tendency of mice to move around in dark environments more than in bright environments. The experimental mice are placed in a bright environment of a bright and dark environment connecting device, and then electrically stimulated when they enter the dark environment. Then in order to avoid the electric stimulus, they will move into the light environment, while mice that are not good at learning and memorizing will maintain their habit and enter the dark environment. At the end of each round of the experiment, 75% alcohol were sprayed for wiping to avoid odor interference between mice. This experiment was conducted at the end of the administration. […]

Structures are written as SMILES.

As for `O=C(O)C[S+]([O-])c1cc(NS(=O)(=O)c2ccc(C(F)(F)F)cc2)c2ccccc2c1O` (stereo not drawn) [I-14-1], in experiment [1], the “escape latency (water maze)” value is on record as “shorten the escape latency”, the “number of crossing over the platform (water maze)” value is on record as “increased” and the “apoptosis rate of hippocampal neurons (flow cytometry)” value is recorded as “significantly reduce”. In addition, in experiment [2], the “seizure grade (Racine grading)” value is on record as “reduce the seizure grade”; the “latency in platform jumping (Step-down) experiment” value is recorded as “increase the Initial latency to a certain degree”; the “Step-through latency, dark avoidance experiment” value is reported as “increase the latency to a certain extent”; the “serum IL-1β level” value is on record as “reduce”. Moreover, in experiment [2], the “serum TNF-α level” value is “reduce”.

Take `O=C(O)C[S+]([O-])c1cc(NS(=O)(=O)c2ccc(Br)cc2)c2ccccc2c1O` (stereo not drawn) [I-1]: in experiment [1], the “escape latency (water maze)” value is listed as “shorten the escape latency”, the “number of crossing over the platform (water maze)” value is on record as “increased” and the “apoptosis rate of hippocampal neurons (flow cytometry)” value is listed as “significantly reduce”. Further, the “therapeutic effect of TJ01-013 compared with I-14-1” value in experiment [1] (per readout of the block) is on record as “significantly better”. In addition, in experiment [2], the “seizure grade (Racine grading)” value is listed as “significant difference in reducing seizures”; the “latency in platform jumping (Step-down) experiment” value is given as “increase the Initial latency to a certain degree”; the “Step-through latency, dark avoidance experiment” value is reported as “increase the latency to a certain extent”; the “serum IL-1β level” value is given as “reduce”. Besides, the “serum TNF-α level” value in experiment [2] is given as “reduce”. Besides, the “treatment effect of TJ01-013 compared with I-14-1” value in experiment [2] (both 30 mg/kg, per readout of the block) is listed as “significantly better”.
